“Also recorded” adds a separate entry of the source.
What was measured:
[1] = Population pharmacokinetics (POPPK) model and simulations of LP01; set-up: species or system human; settings: interim POPPK model, 15 ATTRv-PN subjects
Method: An interim POPPK model was developed for NTLA-2001 analyte LP01 based on a published model using NONMEM software (Version 7.5.0, ICON Clinical Research LLC, Blue Vell, PA). There were 290 observations in 15 ATTRv-PN subjects for this analysis. Parameter values for this model and goodness of fit plots were determined (not shown). The relationship between body weight and the estimated elimination clearance was determined, together with the modeled linear relationship.
FIG. 26 provides the distribution of simulated AUC by weight quartile following administration of 1 mg/kg (left panel) and 80 mg (right panel) NTLA-2001. […] Likewise, following 80 mg NTLA-2001, there is again overlap of simulated LP01 AUC across weight quartiles. […] The ratio of simulated mean exposures in the 4th ([90.3-146] kg) to the 1st weight quartile ([48-71.7] kg) is 1.25 for 1 mg/kg NTLA-2001 and 0.81 for 80 mg NTLA-2001. Simulations identified NTLA-2001 80 mg as the fixed dose equivalent to 1.0 mg/kg.

[2] = Clinical plasma pharmacokinetics of NTLA-2001 components (LC-MS/MS for Lipid A and DMG-PEG2k, qRT-PCR for guide RNA and mRNA); type: in vivo, human; settings: for plasma concentration-time profile: following single IV infusion of NTLA-2001, interim
Excerpt: Plasma pharmacokinetic methods were developed and validated to quantify 4 components of NTLA-2001: ionizable Lipid A (also referred to as LP01), DMG-PEG2k lipid, guide RNA, and mRNA. Lipid A and DMG-PEG2k are quantified by liquid chromatography with tandem mass spectrometry (LC-MS/MS) method. Assay signal [ratio of area under the curve of reference standard over internal standard (IS, using isotopic labelled reference standard)] vs. Concentration response standard curve is used. QCs and unknown sample signal are interpolated from standard curve to determine plasma concentrations. Both guide RNA and mRNA are quantified by qRT-PCR. Signal Cycle Threshold (Ct) vs. Concentration standard curve is used. QCs and unknown samples were interpolated from standard curve to quantify plasma concentrations. Urine PK methods were developed and validated for Lipid A and DMG-PEG2k to characterize excretion.
Preliminary plasma PK data are available for the four components of NTLA-2001 (ionizable Lipid A, DMG-PEG2k lipid, guide RNA, and mRNA). […] FIG. 24. Data for other components not shown.

CCCCC/C=C\C/C=C\CCCCCCCC(=O)OCC(COC(=O)CCC(OCCCCCCCC)OCCCCCCCC)COC(=O)OCCCN(CC)CC (stereo not shown) [LP01, (9Z,12Z)-3-((4,4-bis(octyloxy)butanoyl)oxy)-2-((((3-(diethylamino)propoxy)carbonyl)oxy)methyl)propyl octadeca-9,12-dienoate]
relationship between body weight and estimated elimination clearance [1]: less than proportional | plasma concentration-time profile [2]: rapid decline from peak levels, followed by a secondary peak, and then a log-linear phase; also recorded: declines rapidly from peak and then exhibits a secondary peak and log-linear phase | plasma concentration-time profile ([2]; listed as NTLA-2001 ionizable lipid): rapid decline from peak levels followed by a secondary peak and then a log-linear phase | half-life ([2]; human, plasma, single IV infusion of NTLA-2001 at 0.1 to 1.0 mg/kg, range across doses, preliminary, read-out: mean (% CV) terminal t1/2): 19.7 to 24.8 h

Source: patent publication US20250269062A1, “METHODS FOR IN VIVO EDITING OF A LIVER GENE” (INTELLIA THERAPEUTICS, INC., priority 2021, published 2025)
